Source: the NIST ThermoML archive (doi:10.1021/acs.jced.8b00554)

Test: xn = mol fraction of the nth substance listed
Details: Liquid, Vibrating tube method

CCCCCCCC [octane] + CCCO
mass density [kg/m3]
Details | 323.15 K | 333.15 K
100 kPa, x2 = 0.1631 | – | 675.2
100 kPa, x2 = 0.2111 | – | 677.49
100 kPa, x2 = 0.3158 | – | 683.44
100 kPa, x2 = 0.4411 | – | 692.56
100 kPa, x2 = 0.7301 | – | 721.13
100 kPa, x2 = 0.8823 | – | 744.98
1000 kPa, x2 = 0.2111 | – | 678.54
1000 kPa, x2 = 0.3158 | – | 684.58
1010 kPa, x2 = 0.1631 | – | 676.35
1010 kPa, x2 = 0.4411 | – | 694.32
1010 kPa, x2 = 0.8823 | – | 745.82
1020 kPa, x2 = 0.7301 | – | 722.21
2010 kPa, x2 = 0.1631 | – | 677.44
2010 kPa, x2 = 0.2111 | – | 679.63
2010 kPa, x2 = 0.3158 | – | 685.64
2010 kPa, x2 = 0.4411 | – | 695.36
2010 kPa, x2 = 0.7301 | – | 723.26
2010 kPa, x2 = 0.8823 | – | 746.82
3000 kPa, x2 = 0.2111 | – | 680.7
3000 kPa, x2 = 0.3158 | – | 686.7
3010 kPa, x2 = 0.1631 | – | 678.49
3010 kPa, x2 = 0.7301 | – | 724.3
3020 kPa, x2 = 0.4411 | – | 696.43
3020 kPa, x2 = 0.8823 | – | 747.84
4000 kPa, x2 = 0.3158 | – | 687.78
4000 kPa, x2 = 0.4411 | – | 697.47
4000 kPa, x2 = 0.7301 | – | 725.32
4010 kPa, x2 = 0.2111 | – | 681.76
4010 kPa, x2 = 0.8823 | – | 748.84
4020 kPa, x2 = 0.1631 | – | 679.56
5000 kPa, x2 = 0.8823 | – | 749.83
5010 kPa, x2 = 0.2111 | – | 682.8
5020 kPa, x2 = 0.1631 | – | 680.6
5020 kPa, x2 = 0.3158 | – | 688.8
5020 kPa, x2 = 0.4411 | – | 698.53
5020 kPa, x2 = 0.7301 | – | 726.33
6000 kPa, x2 = 0.2111 | – | 683.81
6010 kPa, x2 = 0.3158 | – | 689.87
6010 kPa, x2 = 0.4411 | – | 699.54
6010 kPa, x2 = 0.7301 | – | 727.35
6010 kPa, x2 = 0.8823 | – | 750.8
6020 kPa, x2 = 0.1631 | – | 681.62
7000 kPa, x2 = 0.1631 | – | 682.67
7000 kPa, x2 = 0.2111 | – | 684.85
7000 kPa, x2 = 0.3158 | – | 690.9
7010 kPa, x2 = 0.4411 | – | 700.57
7010 kPa, x2 = 0.8823 | – | 751.79
7020 kPa, x2 = 0.7301 | – | 728.39
8000 kPa, x2 = 0.8823 | – | 752.76
8010 kPa, x2 = 0.1631 | – | 683.7
8010 kPa, x2 = 0.7301 | – | 729.39
8020 kPa, x2 = 0.2111 | – | 685.89
8020 kPa, x2 = 0.3158 | – | 691.91
8020 kPa, x2 = 0.4411 | – | 701.57
9000 kPa, x2 = 0.4411 | – | 702.6
9010 kPa, x2 = 0.1631 | – | 684.68
9010 kPa, x2 = 0.2111 | – | 686.89
9010 kPa, x2 = 0.3158 | – | 692.93
9010 kPa, x2 = 0.7301 | – | 730.37
9010 kPa, x2 = 0.8823 | – | 753.69
10000 kPa, x2 = 0.2111 | – | 687.87
10000 kPa, x2 = 0.8823 | – | 754.64
10010 kPa, x2 = 0.3158 | 702.83 | 693.93
10010 kPa, x2 = 0.4411 | 711.7 | –
10010 kPa, x2 = 0.7301 | – | 731.35
10010 kPa, x2 = 0.8823 | 763.66 | –
10020 kPa, x2 = 0.1631 | – | 685.68
10020 kPa, x2 = 0.4411 | – | 703.57
11000 kPa, x2 = 0.1631 | 695.13 | –
11000 kPa, x2 = 0.3158 | – | 694.92
11010 kPa, x2 = 0.1631 | – | 686.66
11010 kPa, x2 = 0.2111 | 697.62 | –
11010 kPa, x2 = 0.3158 | 703.75 | –
11010 kPa, x2 = 0.4411 | 712.61 | 704.56
11010 kPa, x2 = 0.7301 | 741.5 | 732.33
11010 kPa, x2 = 0.8823 | 764.53 | 755.6
11020 kPa, x2 = 0.2111 | – | 688.87
12000 kPa, x2 = 0.2111 | – | 689.87
12000 kPa, x2 = 0.3158 | 704.66 | –
12000 kPa, x2 = 0.4411 | – | 705.54
12010 kPa, x2 = 0.7301 | 742.41 | –
12010 kPa, x2 = 0.8823 | 765.37 | 756.54
12020 kPa, x2 = 0.1631 | 696.03 | 687.66
12020 kPa, x2 = 0.2111 | 698.52 | –
12020 kPa, x2 = 0.3158 | – | 695.9
12020 kPa, x2 = 0.4411 | 713.53 | –
12020 kPa, x2 = 0.7301 | – | 733.28
13000 kPa, x2 = 0.8823 | 766.25 | 757.44
13010 kPa, x2 = 0.2111 | 699.43 | –
13010 kPa, x2 = 0.3158 | – | 696.87
13010 kPa, x2 = 0.4411 | 714.42 | –
13010 kPa, x2 = 0.7301 | 743.29 | –
13020 kPa, x2 = 0.1631 | 696.94 | 688.62
13020 kPa, x2 = 0.2111 | – | 690.84
13020 kPa, x2 = 0.3158 | 705.56 | –
13020 kPa, x2 = 0.4411 | – | 706.46
13020 kPa, x2 = 0.7301 | – | 734.24
14010 kPa, x2 = 0.1631 | 697.82 | –
14010 kPa, x2 = 0.2111 | 700.32 | 691.78
14010 kPa, x2 = 0.3158 | 706.45 | 697.84
14010 kPa, x2 = 0.4411 | 715.31 | 707.42
14010 kPa, x2 = 0.8823 | 767.11 | 758.35
14020 kPa, x2 = 0.1631 | – | 689.54
14020 kPa, x2 = 0.7301 | 744.18 | 735.17
15000 kPa, x2 = 0.1631 | – | 690.49
15000 kPa, x2 = 0.2111 | – | 692.73
15000 kPa, x2 = 0.7301 | 745.04 | –
15000 kPa, x2 = 0.8823 | 767.94 | –
15010 kPa, x2 = 0.1631 | 698.72 | –
15010 kPa, x2 = 0.2111 | 701.21 | –
15010 kPa, x2 = 0.4411 | – | 708.36
15020 kPa, x2 = 0.3158 | 707.35 | 698.76
15020 kPa, x2 = 0.4411 | 716.17 | –
15020 kPa, x2 = 0.7301 | – | 736.09
15020 kPa, x2 = 0.8823 | – | 759.26
16000 kPa, x2 = 0.1631 | – | 691.42
16000 kPa, x2 = 0.3158 | 708.22 | –
16000 kPa, x2 = 0.4411 | – | 709.26
16000 kPa, x2 = 0.7301 | 745.87 | –
16010 kPa, x2 = 0.1631 | 699.58 | –
16010 kPa, x2 = 0.2111 | – | 693.66
16010 kPa, x2 = 0.3158 | – | 699.72
16010 kPa, x2 = 0.4411 | 717.04 | –
16010 kPa, x2 = 0.8823 | 768.77 | 760.14
16020 kPa, x2 = 0.2111 | 702.08 | –
16020 kPa, x2 = 0.7301 | – | 737.02
17000 kPa, x2 = 0.1631 | 700.41 | –
17010 kPa, x2 = 0.2111 | 702.95 | 694.6
17010 kPa, x2 = 0.3158 | 709.05 | 700.63
17010 kPa, x2 = 0.4411 | 717.88 | 710.16
17010 kPa, x2 = 0.7301 | – | 737.93
17020 kPa, x2 = 0.1631 | – | 692.33
17020 kPa, x2 = 0.7301 | 746.73 | –
17020 kPa, x2 = 0.8823 | 769.6 | 761.01
18000 kPa, x2 = 0.1631 | 701.27 | 693.25
18000 kPa, x2 = 0.2111 | 703.77 | –
18010 kPa, x2 = 0.3158 | 709.93 | 701.51
18010 kPa, x2 = 0.4411 | 718.73 | 711.06
18010 kPa, x2 = 0.7301 | 747.56 | 738.78
18010 kPa, x2 = 0.8823 | 770.4 | 761.87
18020 kPa, x2 = 0.2111 | – | 695.49
19000 kPa, x2 = 0.1631 | – | 694.12
19000 kPa, x2 = 0.3158 | – | 702.41
19000 kPa, x2 = 0.7301 | – | 739.68
19000 kPa, x2 = 0.8823 | – | 762.72
19010 kPa, x2 = 0.1631 | 702.08 | –
19010 kPa, x2 = 0.2111 | 704.61 | 696.36
19010 kPa, x2 = 0.3158 | 710.75 | –
19010 kPa, x2 = 0.4411 | 719.58 | –
19010 kPa, x2 = 0.7301 | 748.4 | –
19020 kPa, x2 = 0.4411 | – | 711.94
19020 kPa, x2 = 0.8823 | 771.2 | –
20000 kPa, x2 = 0.1631 | – | 694.96
20000 kPa, x2 = 0.2111 | – | 697.38
20010 kPa, x2 = 0.1631 | 702.9 | –
20010 kPa, x2 = 0.2111 | 705.43 | –
20010 kPa, x2 = 0.3158 | – | 703.29
20010 kPa, x2 = 0.4411 | 720.41 | –
20010 kPa, x2 = 0.7301 | 749.2 | 740.54
20010 kPa, x2 = 0.8823 | 772.02 | 763.55
20020 kPa, x2 = 0.3158 | 711.56 | –
20020 kPa, x2 = 0.4411 | – | 711.91
